Calls of active or inactive are those of the source. The calls are words filed in the database; no cut-off is given here.
Columns and labels:
[1] = test system: T1, High affinity choline transporter 1 (Homo sapiens), Q9GZV3 [L531A,V532A]; assay: Inhibition of human CHT […] mutant expressed in HEK293 cells assessed as remaining transporter activity at 5 uM in presence of 100 nM [3H]choline by [3H]choline uptake assay; assay type: cell-based
T1 sequence (whole entry): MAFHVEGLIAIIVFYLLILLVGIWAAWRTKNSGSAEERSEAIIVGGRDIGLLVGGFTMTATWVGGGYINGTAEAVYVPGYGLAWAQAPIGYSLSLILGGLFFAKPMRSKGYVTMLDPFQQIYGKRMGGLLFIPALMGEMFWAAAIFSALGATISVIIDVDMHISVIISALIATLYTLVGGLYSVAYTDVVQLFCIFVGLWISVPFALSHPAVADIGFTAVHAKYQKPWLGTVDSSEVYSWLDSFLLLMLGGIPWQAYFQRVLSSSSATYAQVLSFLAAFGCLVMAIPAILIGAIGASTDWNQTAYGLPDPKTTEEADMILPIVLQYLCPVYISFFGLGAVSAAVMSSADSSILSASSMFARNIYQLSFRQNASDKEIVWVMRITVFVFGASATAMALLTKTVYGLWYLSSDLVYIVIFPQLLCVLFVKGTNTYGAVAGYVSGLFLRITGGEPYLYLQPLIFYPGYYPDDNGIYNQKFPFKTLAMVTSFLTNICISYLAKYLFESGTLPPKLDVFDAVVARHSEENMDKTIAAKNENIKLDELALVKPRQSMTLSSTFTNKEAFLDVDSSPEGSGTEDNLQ

[2] = test system: T1, High affinity choline transporter 1 (Homo sapiens), Q9GZV3 [L531A,V532A]; assay: Inhibition of human CHT […] mutant expressed in HEK293 cells assessed as remaining transporter activity at 5 uM in presence of 10 uM [3H]choline by [3H]choline uptake assay; assay type: cell-based
[3] = target: T2, High affinity choline transporter 1 (Homo sapiens, UniProt Q9GZV3, L531A/V532A); assay: Inhibition of human CHT […] mutant expressed in HEK293 cells assessed as remaining transporter activity in presence of 100 nM [3H]choline by [3H]choline uptake assay; assay type: cell-based
[4] = target: T2, High affinity choline transporter 1; assay: Inhibition of human CHT […] mutant expressed in HEK293 cells assessed as remaining transporter activity in presence of 10 uM [3H]choline by [3H]choline uptake assay; assay type: cell-based
[5] = test system: Plasma; assay: Fraction unbound in mouse plasma by equilibrium dialysis method; assay type: ADME, cell-free
[6] = target: T3, Cytochrome P450 1A2 (Homo sapiens, UniProt P05177); assay: Inhibition of human CYP1A2; assay type: ADME
T3 sequence (P05177 whole entry): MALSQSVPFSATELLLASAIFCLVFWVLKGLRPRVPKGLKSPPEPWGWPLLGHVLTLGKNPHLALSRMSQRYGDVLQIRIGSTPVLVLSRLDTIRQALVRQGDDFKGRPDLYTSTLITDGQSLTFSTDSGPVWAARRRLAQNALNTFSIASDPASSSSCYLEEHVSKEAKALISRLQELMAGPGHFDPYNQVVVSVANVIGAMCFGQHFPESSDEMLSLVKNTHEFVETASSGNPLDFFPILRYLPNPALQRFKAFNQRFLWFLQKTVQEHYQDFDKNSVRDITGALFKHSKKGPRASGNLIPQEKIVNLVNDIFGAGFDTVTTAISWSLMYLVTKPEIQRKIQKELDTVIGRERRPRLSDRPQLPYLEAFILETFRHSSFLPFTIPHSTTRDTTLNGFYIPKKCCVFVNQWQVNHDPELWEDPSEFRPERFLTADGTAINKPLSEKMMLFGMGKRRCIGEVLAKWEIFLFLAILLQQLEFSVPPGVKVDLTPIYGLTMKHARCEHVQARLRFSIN

[7] = target: Cytochrome P450 2C9 (Homo sapiens, UniProt P11712); assay: Inhibition of human CYP2C9; assay type: ADME
Cytochrome P450 2C9, sequence (P11712 whole entry): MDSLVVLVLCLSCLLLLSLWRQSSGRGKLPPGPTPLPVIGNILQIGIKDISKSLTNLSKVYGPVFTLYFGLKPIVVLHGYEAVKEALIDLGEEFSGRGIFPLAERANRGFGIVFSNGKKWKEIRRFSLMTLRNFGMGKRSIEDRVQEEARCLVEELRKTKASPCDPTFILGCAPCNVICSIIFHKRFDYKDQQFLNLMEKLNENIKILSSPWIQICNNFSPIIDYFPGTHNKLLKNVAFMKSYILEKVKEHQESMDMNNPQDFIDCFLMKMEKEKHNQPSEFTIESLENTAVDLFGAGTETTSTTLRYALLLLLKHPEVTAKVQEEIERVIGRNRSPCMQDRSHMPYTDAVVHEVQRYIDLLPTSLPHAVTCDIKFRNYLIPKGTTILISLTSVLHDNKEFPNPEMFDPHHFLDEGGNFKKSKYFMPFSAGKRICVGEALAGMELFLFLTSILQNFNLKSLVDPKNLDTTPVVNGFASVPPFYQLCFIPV

[8] = target: Cytochrome P450 2D6 (Homo sapiens, UniProt P10635); assay: Inhibition of human CYP2D6; assay type: ADME
Cytochrome P450 2D6, sequence (P10635 whole entry): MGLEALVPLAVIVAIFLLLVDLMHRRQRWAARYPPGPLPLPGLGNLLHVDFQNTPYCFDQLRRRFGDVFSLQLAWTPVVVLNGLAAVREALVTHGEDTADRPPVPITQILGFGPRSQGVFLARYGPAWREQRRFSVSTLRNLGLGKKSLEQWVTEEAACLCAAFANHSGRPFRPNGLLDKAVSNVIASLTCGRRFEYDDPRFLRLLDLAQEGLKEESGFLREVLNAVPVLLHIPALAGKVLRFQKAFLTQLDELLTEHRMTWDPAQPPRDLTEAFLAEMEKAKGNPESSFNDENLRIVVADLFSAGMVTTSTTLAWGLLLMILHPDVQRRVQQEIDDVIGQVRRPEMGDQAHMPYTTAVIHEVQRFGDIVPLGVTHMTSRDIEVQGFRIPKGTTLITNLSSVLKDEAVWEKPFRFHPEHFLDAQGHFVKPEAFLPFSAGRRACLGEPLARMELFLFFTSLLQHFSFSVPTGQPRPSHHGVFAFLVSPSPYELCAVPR

[9] = target: Cytochrome P450 3A4 (Homo sapiens, UniProt P08684); assay: Inhibition of human CYP3A4; assay type: ADME
Cytochrome P450 3A4, sequence (P08684 whole entry): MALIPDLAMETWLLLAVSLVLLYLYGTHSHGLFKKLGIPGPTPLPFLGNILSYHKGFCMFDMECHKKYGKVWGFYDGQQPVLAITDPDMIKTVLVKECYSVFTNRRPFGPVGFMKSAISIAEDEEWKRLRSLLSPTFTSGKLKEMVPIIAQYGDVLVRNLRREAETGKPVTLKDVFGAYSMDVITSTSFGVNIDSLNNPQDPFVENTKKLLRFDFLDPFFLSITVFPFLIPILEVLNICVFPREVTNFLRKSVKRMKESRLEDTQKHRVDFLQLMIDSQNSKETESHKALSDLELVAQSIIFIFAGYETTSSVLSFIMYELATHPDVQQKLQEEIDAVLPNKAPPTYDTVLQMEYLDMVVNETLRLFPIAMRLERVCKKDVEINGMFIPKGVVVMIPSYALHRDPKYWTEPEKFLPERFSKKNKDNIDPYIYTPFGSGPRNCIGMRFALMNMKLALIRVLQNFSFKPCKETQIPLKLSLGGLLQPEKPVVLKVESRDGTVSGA

[10] = test system: Brain; assay: Drug level in mouse brain at 1 mg/kg, ip administered as cassette dosing; assay type: ADME, organism-based; design: dose 1 mg/kg, route intraperitoneal; conditions: in vivo
[11] = Ratio of drug level in brain to plasma in mouse at 1 mg/kg, ip administered as cassette dosing; assay type: ADME, organism-based; design: dose 1 mg/kg, route intraperitoneal
[12] = Hepatic clearance in mouse liver microsomes; assay type: ADME
[13] = target: T2, High affinity choline transporter 1; assay: Inhibition of human CHT […] mutant expressed in HEK293 cells by membrane depolarization assay; assay type: cell-based
[14] = target: Sodium-dependent dopamine transporter (Homo sapiens) (UniProt Q01959); assay: Inhibition of DAT (unknown origin)
Sodium-dependent dopamine transporter (Homo sapiens), sequence (Q01959 whole entry): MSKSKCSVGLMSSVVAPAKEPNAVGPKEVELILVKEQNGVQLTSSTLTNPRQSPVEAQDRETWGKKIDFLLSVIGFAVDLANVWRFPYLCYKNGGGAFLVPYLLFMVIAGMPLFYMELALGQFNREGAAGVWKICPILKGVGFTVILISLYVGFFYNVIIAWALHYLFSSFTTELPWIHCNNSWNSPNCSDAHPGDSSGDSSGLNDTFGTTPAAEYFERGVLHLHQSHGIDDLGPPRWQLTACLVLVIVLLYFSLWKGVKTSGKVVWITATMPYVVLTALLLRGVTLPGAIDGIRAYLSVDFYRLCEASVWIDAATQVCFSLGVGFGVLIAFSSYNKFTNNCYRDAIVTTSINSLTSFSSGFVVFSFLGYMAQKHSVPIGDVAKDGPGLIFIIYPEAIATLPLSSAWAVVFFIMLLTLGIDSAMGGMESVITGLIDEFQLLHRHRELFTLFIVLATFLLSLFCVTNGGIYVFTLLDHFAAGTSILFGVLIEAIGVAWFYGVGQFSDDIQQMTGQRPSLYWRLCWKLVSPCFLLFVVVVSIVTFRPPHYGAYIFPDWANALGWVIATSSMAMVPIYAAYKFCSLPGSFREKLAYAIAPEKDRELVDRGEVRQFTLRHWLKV

SMILES | Activity [1] | Activity [2] | IC50 [3] | IC50 [4] | other results
COc1ccc(C(=O)NCc2cc(C(C)C)no2)cc1OCCN1CCCCC1 | 38.3% | -0.2% | 0.76 µM | 0.53 µM | Fu [5]: 0.71; IC50 [6]: > 30 µM; IC50 [7]: > 30 µM; IC50 [8]: > 30 µM; IC50 [9]: > 30 µM; Drug uptake [10]: 1.8 ng/g; BPR [11]: 0.07; CLhep predicted [12]: 58.4 mL/min/kg
COc1ccc(C(=O)NCc2ccc(C)s2)cc1OC1CCN(C(C)C)CC1 | 76.4% | 36.7% | – | – | –
COc1ccc(C(=O)NCCN2CCCC2)cc1OC1CCN(C(C)C)CC1 | 37.4% | 9.9% | 2.13 µM | 1.56 µM | –
COc1ccc(C(=O)NCc2cc(C(C)C)no2)cc1OCCN1CCCC1 | 50.1% | 29.8% | – | – | –
CCn1nc(C)c(CNC(=O)c2ccc(OC)c(OC3CCN(C(C)C)CC3)c2)c1C | 45.8% | 15.9% | 1.58 µM | 0.91 µM | Fu [5]: 0.57; IC50 [6]: > 30 µM; IC50 [7]: > 30 µM; IC50 [8]: 6.7 µM; IC50 [9]: > 30 µM; Drug uptake ([10]; BLD = below limit of detection): BLD; BPR [11]: < 0.05; CLhep predicted [12]: 22.4 mL/min/kg
CCc1cc(CNC(=O)c2ccc(OC)c(OC3CCN(C(C)C)CC3)c2)on1 | – | – | – | – | IC50 [13]: 0.6 µM
COc1ccc(C(=O)NCc2cc(C(C)C)no2)cc1OC1CCN(C(C)C)CC1 | 10.9% | -2.8% | – | – | Fu [5]: 0.57; IC50 [6]: > 30 µM; IC50 [7]: > 30 µM; IC50 [8]: > 30 µM; IC50 [9]: > 30 µM; Drug uptake ([10]; BLD = below limit of detection): BLD; BPR [11]: < 0.06; CLhep predicted [12]: 80.7 mL/min/kg
COc1ccc(C(=O)NCc2csc(C)n2)cc1OC1CCN(C(C)C)CC1 | 42.6% | 18.9% | 4.93 µM | 1.64 µM | Fu [5]: 0.39; IC50 [6]: 10.3 µM; IC50 [7]: > 30 µM; IC50 [8]: > 30 µM; IC50 [9]: > 30 µM; Drug uptake [10]: 1.5 ng/g; BPR [11]: 0.19; CLhep predicted [12]: 82.4 mL/min/kg
CCCN1CCC(Oc2cccc(C(=O)NCCc3ccccc3)c2)CC1 | – | – | – | – | IC50 [13]: 4.22 µM
COc1ccc(C(=O)NCc2cnn(C)c2)cc1OC1CCN(C(C)C)CC1 | 64.8% | 47.5% | – | – | –
COc1ccc(C(=O)NCc2cc(C(C)C)no2)cc1OC1CCCCC1 | 83.2% | 87.6% | – | – | –
COc1ccc(C(=O)NCCC2=CCCCC2)cc1OC1CCN(C(C)C)CC1 | – | – | – | – | IC50 [13]: 3.16 µM
COc1ccc(C(=O)NCc2cc(C(C)C)no2)cc1OC1CCN(C)CC1 | 3.1% | -0.9% | – | – | inhibition [14]: inactive; Fu [5]: 0.48; IC50 [6]: > 30 µM; IC50 [7]: > 30 µM; IC50 [8]: > 30 µM; Drug uptake [10]: 3.3 ng/g; BPR [11]: 0.28; CLhep predicted [12]: 29.4 mL/min/kg
COc1ccc(C(=O)NCc2cc(C(C)C)no2)cc1OC1CCNCC1 | 51.5% | 18.6% | – | – | –
COc1ccc(C(=O)NC(C)Cc2cnccn2)cc1OC1CCN(C(C)C)CC1 (centres undefined) | – | – | – | – | IC50 [13]: 4.47 µM
COc1ccc(C(=O)NC(C)Cc2ccccn2)cc1OC1CCN(C(C)C)CC1 (centres undefined) | 46.3% | 20.4% | 4.12 µM | 1.73 µM | Fu [5]: 0.35; IC50 [6]: > 30 µM; IC50 [7]: > 30 µM; IC50 [8]: 27.1 µM; IC50 [9]: 28.2 µM; Drug uptake [10]: 4 ng/g; BPR [11]: 1.1; CLhep predicted [12]: 48.8 mL/min/kg
COc1ccc(C(=O)NCc2cc(C(C)C)no2)cc1OCCN1CCOCC1 | 36.7% | 32.1% | 6.12 µM | 1.77 µM | –
COc1ccc(C(=O)NCc2nc(C)cs2)cc1OC1CCN(C(C)C)CC1 | 42.2% | 13.2% | 3.48 µM | 1.02 µM | –
COc1ccc(C(=O)NCc2ccncn2)cc1OC1CCN(C(C)C)CC1 | 87.7% | 71.8% | – | – | –
COc1ccc(C(=O)NCc2cc(C(C)C)no2)cc1OC1CCCN(C)C1 (centres undefined) | 51.7% | 18.4% | 1.25 µM | 4.54 µM | –
COc1ccc(C(=O)NCc2nc(C)c(C)s2)cc1OC1CCN(C(C)C)CC1 | – | – | – | – | IC50 [13]: 0.76 µM
COc1ccc(C(=O)NCc2cc(C(C)C)no2)cc1OC1CCCC1 | 82% | 81.3% | – | – | –
CCn1cc(CNC(=O)c2ccc(OC)c(OC3CCN(C(C)C)CC3)c2)cn1 | 41.8% | 24.8% | 9.27 µM | 1.85 µM | –
COc1ccc(C(=O)NCc2cc(C(C)C)no2)cc1OC(C)CN(C)C (centres undefined) | 59.7% | 28.2% | – | – | –
COc1ccc(C(=O)NCc2cc(C)n(C)n2)cc1OC1CCN(C(C)C)CC1 | 49.9% | 29.4% | 8.09 µM | 2.51 µM | –
COc1ccc(C(=O)NCc2cc(C(C)C)no2)cc1O | 86.2% | 99.4% | – | – | –
COc1ccc(C(=O)NC2CCc3ccccc32)cc1OC1CCN(C(C)C)CC1 (centres undefined) | – | – | – | – | IC50 [13]: 3.36 µM
CC(NC(=O)c1ccc(OC2CCN(Cc3ccccn3)CC2)cc1)c1ccccc1 (centres undefined) | – | – | – | – | IC50 [13]: 1.26 µM
COc1ccc(C(=O)NCc2cc(C(C)C)no2)cc1OCC(C)C | 99.8% | 89.4% | – | – | –

From ChEMBL document CHEMBL3400059, “Synthesis and structure-activity relationships of a series of 4-methoxy-3-(piperidin-4-yl)oxy benzamides as novel inhibitors of the presynaptic choline transporter” (Bioorg Med Chem Lett, 2015)
